The text below walks through data of patent publication US5256820A, “1-alkyl-2-acyl-1,2-disulfonylhydrazines” (Yale University, priority 1991, dated 1993).

Data set [1] relates to GST (glutathione-S-transferase), equine liver enzyme. As to the kind of experiment: GST-catalyzed GSH activation of prodrug. The class given is biochemical. The settings on record: 13.5 units/ml equine liver GST. An excerpt: Therefore, tumors resistant to conventional chloroethylating agents because of the protective effect conferred by high levels of intracellular thiols, may be more sensitive to 2-acyl-1,2-bis(methylsulfonyl)-1-methyl (or 2-chloroethyl)hydrazines. […] Although elevation of GST levels has been associated with increased resistance to a variety of alkylating agents, such a change is expected to increase sensitivity to the thiol-activated prodrugs.

A short description of data set [2]: Prodrug activation by GSH, methanol generation determined using alcohol oxidase. As for the experimental part: Our belief is confirmed by the following experiment in which we incubated a solution of 2-benzoyl-1,2-bis(methylsulfonyl)-1-methylhydrazine (R=C6 H5) in phosphate buffer (pH 7.4) at 37° C. in the presence and absence of GSH. The amount of methanol generated in 10 min, determined using alcohol oxidase by methodology described by Penketh et al. (1990) 33:730-732, was used as a measure of activation of the prodrug. In the presence of 1 mM GSH, the amount of methanol generated increased approximately 10-fold, relative to that occurring in phosphate buffer alone. […] In the case of the 1-(2-chloroethyl) derivative (the compound of Example 6), 22although precise quantitation was difficult due to the limitations of the assay, the compound of Example 6 gave a 6- to 7-fold greater amount of alkylated product when reacted with the nucleophile 4-(4'-nitrobenyl)pyridine in the presence of 5 mM GSH for 30 min at 37° C. than in its absence.

The conditions of data set [3]: Stewart and Evans (1989); cited from earlier work.
The next data set can be described thus: Water solubility. The data set is classed as physicochemical.
Data set [4] is described as follows: Alkylation of 4-(4'-nitrobenzyl)pyridine in presence and absence of bovine serum. The settings on record: 4 mM compound, 37° C., 1 h, 100 mM phosphate buffer pH 7.4. The procedure: Serum was capable of stimulating the alkylation of the model nucleophile, 4-(4'-nitrobenzyl)pyridine, by 2-acyl-1,2-bis(methylsulfonyl)-1-(2-chloroethyl)hydrazines, providing direct evidence for the serum-dependent generation of the alkylating species from these prodrugs (Table V).
Relative Alkylation of 4-(4'-Nitrobenzyl)pyridine
(NBP) by 4 mM 2-Acetyl-1,2-bis(methylsulfonyl)-1-(2-
chloroethyl)hydrazine at 37° C. for 1 h in 100 mM Phosphate
Buffer (pH 7.4) in the Presence and Absence of 20% Bovine

For another data set, the system named is L1210 leukemia. Put plainly: Survival time of mice bearing the L1210 leukemia. The class given is in vivo, mouse. As for the experimental part: The antineoplastic activity of each of the compounds of Examples 1-6 was assessed by measuring their effects on the survival time of mice bearing the L1210 leukemia by the method generally disclosed in Shyam et al. J. Med. Chem. (1990) 33:2259-2264. The compounds were administered once daily for six consecutive days. Percent change in body weight from onset to termination of therapy was recorded. The results are summarized in Table I. All of the compounds tested produced at least partial 60-day "cures" of mice bearing the L1210 leukemia. […] This compound also produced 80-90% "cures" at 10 and 15 mg/kg×6.
Effects of 2-Acyl-1,2-bis(methylsulfonyl)-1-
^a Administered once daily for six consecutive days, beginning 24 h
after tumor implantation, with 5-10 mice being used per group.
^b Average day of death for untreated tumorbearing mice was 8.4.
^c Average percent change in body weight from onset to termination of
therapy. Average percent change in body weight for vehicletreated control
^d % T/C = average survival time of treated/control mice × 100;
60day survivors are listed separately and are not included in this

Data set [5] in a line: Spontaneous decomposition (hydrolysis) in aqueous phosphate buffer, phenol red proton release assay. The class given is physicochemical. The procedure:
The compounds of the invention are relatively stable. As a measure of their stability, spontaneous decomposition in aqueous media was measured in phosphate buffer, pH 7.4 (37° C.). Hydrolysis at N-1 would result in the generation of a carboxylic acid and the corresponding 1,2-bis(methylsulfonyl)-1-(2-chloroethyl)hydrazine. Since both of these compounds are ionized under these conditions, the release of protons can be used to follow the decomposition of these and related compounds. The release of protons can be assayed by following the decrease in absorbance at 560 nm of a weakly buffered (1 mM potassium phosphate) phenol red (21 mg/L) solution. The assay has been calibrated using HC1 standards. […] The spontaneous hydrolysis of the compound of Example 1 at pH 7.4, 37° C. in 1 mM phosphate buffer occurs at approximately 0.7% of the rate of the corresponding prior art compounds [1,2,2-tris(methylsulfonyl)-1-(2-chloroethyl)hydrazine] under the same conditions. The rate of hydrolysis was highly sensitive to changes in temperature and pH (Tables II and III). […] At pH 7.4, 37° C., a 200 μM solution of the compound of Example 1 hydrolyzes at the rate of approximately 0.6% per hour. […] Therefore, stable aqueous solutions of this agent can be formulated. The other analogs synthesized according to Examples 2-6 also hydrolyzed at relatively slow rates.

A short description of data set [6]: Hydrolysis in the presence of bovine serum. The data set is classed as in vitro ADME. The settings on record: for Rate of hydrolysis: 200 μM solution. An excerpt:
To verify that the prodrugs would be converted to alkylating species in vivo, we performed studies on the kinetics of hydrolysis of these compounds in the presence of serum and also in the presence of proteinase K (a protease of low specificity). […] Serum from different sources, i.e., mouse, bovine and man, were not equivalent in their activities or in their rank order of substrate specificity. […] Table IV reports the effects of bovine serum concentrates on hydrolysis of two compounds--the compounds of Example 1 and Example 6.
Effects of Bovine Serum Concentration on the
^a Expressed nmol/ml/min for a 200 μM solution.

Each structure is given as a SMILES string. Entries after “also recorded” stand apart in the source; their conditions may differ.

`CN(N(C(=O)c1ccccc1)S(C)(=O)=O)S(C)(=O)=O` [2-benzoyl-1,2-bis(methylsulfonyl)-1-methylhydrazine]: the “effect of GST on GSH activation rate (in words)” value in data set [1] is given as “doubling the activation rate”. Besides, in data set [2] (1 mM GSH, 10 min, phosphate buffer pH 7.4, 37° C.), the “increase in amount of methanol generated relative to phosphate buffer alone” value is recorded as “approximately 10 fold”. In addition, in data set [2] (GSH), the “dependence of rate of activation on GSH concentration (in words)” value is recorded as “directly proportional to the GSH concentration”.

In the case of `CCCCS(=N)(=O)CCC(N)C(=O)O` (stereo not drawn) [Buthionine sulfoximine], in data set [3], the “reversal of resistance to alkylating agents (in words)” value was “reverse this resistance by reducing cellular GSH levels”.

For the compound `CC(=O)N(N(CCCl)S(C)(=O)=O)S(C)(=O)=O` [Example 1, 1-Acetyl-1,2-bis(methylsulfonyl)-2-(2-chloroethyl)hydrazine], in “Water solubility”, the “water solubility (in words)” value is “most water-soluble analogs of this class”. Moreover, the “Relative alkylation of NBP” value in data set [4] (bovine serum (20%)) is recorded as 5.7; in data set [4] (no serum) it was 1.0. Moreover, the “60-day "cures"” value in the data set with L1210 leukemia (7.5 mg/kg, six daily intraperitoneal doses) turned out to be 80%. The “antineoplastic activity / curative effect (in words)” value with L1210 leukemia (L1210 leukemia mice) was “highly active against the L1210 leukemia; also recorded: produced their curative effects at relatively low dosage levels”. For the same compound, the “% 60-day survivors” value with L1210 leukemia (at opt. effective daily dose) was found to be 80%. Moreover, the “% T/C (average survival time of treated/control mice × 100)” value in the data set on L1210 leukemia (at opt. effective daily dose, 60-day survivors not included) is 341%. Further, the “AvΔ wt % (average percent change in body weight from onset to termination of therapy)” value in the data set on L1210 leukemia (at opt. effective daily dose, vehicle control +2.0) is “+1.0%”. Moreover, the “Opt. effective daily dose” value in the data set on L1210 leukemia (once daily for six consecutive days, beginning 24 h after tumor implantation, L1210 mice) is 7.5 mg/kg. The “Relative rate of hydrolysis” value came to 0.21 in data set [5] (23 °C (37 °C = 1.00)); 0.57 in data set [5] (30 °C (37 °C = 1.00)); 0.72 in data set [5] (32 °C (37 °C = 1.00)); 1.00 in data set [5] (37 °C (reference, 1.00)); 0.48 in data set [5] (pH 7.4 (pH 7.8 = 1.00)); 0.57 in data set [5] (pH 7.5 (pH 7.8 = 1.00)). For the same compound, the “Relative rate of hydrolysis” value in data set [5] (pH 7.6 (pH 7.8 = 1.00)) stood at 0.70; in data set [5] (pH 7.8 (reference, 1.00)), 1.00. The “increase of hydrolysis rate with pH” value in data set [5] (for every 0.2 unit rise in pH, pH 7.4-7.8 range) is “approximately 50%”. In data set [5] (for every 5° C. rise in temperature), the “change of hydrolysis rate with temperature” value is listed as “double”. Further, the “rate of spontaneous hydrolysis relative to prior art compound” value in data set [5] (pH 7.4, 37° C., 1 mM phosphate buffer, vs 1,2,2-tris(methylsulfonyl)-1-(2-chloroethyl)hydrazine) is given as “approximately 0.7%”. Besides, the degraded at 1 h, 200 µM in data set [5] (phosphate buffer, 200 μM solution, pH 7.4, 37° C., read-out: rate of hydrolysis) was roughly 0.6%. Moreover, the Rate of hydrolysis turned out to be 0.02 nmol/mL/min in data set [6] (0% v/v bovine serum), 0.055 nmol/mL/min in data set [6] (5% v/v bovine serum), 0.10 nmol/mL/min in data set [6] (10% v/v bovine serum) and 0.26 nmol/mL/min in data set [6] (20% v/v bovine serum). In addition, the “decrease in ability of bovine serum to hydrolyze the compound after boiling” value in data set [6] (boiled dilute solutions of bovine serum) is recorded as greater than 75%.
